Experimental data: article PMC5441580, “GPR40 partial agonist MK-2305 lower fasting glucose in the Goto Kakizaki rat via suppression of endogenous glucose production” (PLoS ONE, 2017)
Where “and” joins values, the source holds several entries; their conditions need not be identical. Identical values can stand only once.

Tests used:
[1] = system: pancreatic islets of Langerhans from wild-type mice; assay: glucose stimulated insulin secretion (GSIS), isolated wild-type islets; format: cell-based, mouse; details: WT islets; for secreted insulin per islet: 10 uM compound, 60 min, individual wells
Procedure: Pancreatic islets of Langerhans were isolated from wild-type and GPR40−/− mice (littermates) by collagenase digestion and discontinuous Ficoll gradient separation. […] Insulin secretion was determined by a 1 hr static incubation in Krebs-Ringer bicarbonate (KRB) buffer in a 96-well format as previously described. Briefly, islets were first preincubated in KRB medium with 2 mmol/l glucose for 30 min and were then transferred to a 96-well plate (three islets/well) and incubated with 200 μl of the KRB medium with 2 or 15 mmol/l glucose in the presence or absence of testing compounds for 60 min. The buffer was removed from the wells at the end of the incubation and assayed for insulin levels using the Ultrasensitive Rat Insulin ELISA kit (ALPCO, Salem, NH). All insulin secretion data were normalized by total islet numbers (ex: three islets/well), so the unit is secreted insulin (ng/ml) per islet.

GK rats = assay: endogenous glucose production in vivo, 2H/13C dual tracer, acute treatment, GK rats; design: species or system rat
Procedure: To evaluate whether MK-2305 treatment produced an effect on EGP in vivo, a ^2H/^13C dual tracer approach was used to calculate EGP and its contributing sources. On the day of the study, GK rats were bled via tail snip, and blood glucose was measured via glucometer. Ambient glucose was measured at 8 A.M. and used to sort animals into treatment groups (n = 8 per group). 0.9% NaCl salinated D2O (Sigma-Aldrich, St. Louis, MO) was administered to all animals via IP injection at dose volume of 20 ml/kg. Animals were then placed in clean cages and food was removed. After a 5 hour fast, blood glucose was measured and animals were dosed PO with MK-2305 at 10 mg/kg (5 ml/kg) or vehicle (0.5% methylcellulose) immediately followed by 50 mg/kg [U-^13C] glucose (Sigma-Aldrich) IP at 5 ml/kg. Blood was collected via tail snip at time points from 60–150 min post treatment to measure blood glucose as well as endogenous (^12C-glucose) and exogenous (^13C-glucose) via GCMS. Following the last tail blood collection, rats were anesthetized with isoflurane and cardiac blood was collected into K2EDTA tubes (Becton, Dickinson and Co., Franklin Lakes, NJ).
The serially collected blood samples were analyzed for ^13C-glucose enrichment using GC-MS analysis. The % ^13C glucose enrichments were then combined with the total glucose readings to calculate the concentration of ^13C-glucose, and these values were modeled with a two-compartment model of whole body glucose metabolism to calculate the average EGP for the period from 0–150 minutes.
Terminal blood samples were analyzed for relative ^2H enrichment in plasma glucose using the monoacetone glucose method. Briefly, samples were extracted with 70% perchloric acid and centrifuged at 25,000 rcf for 10 min at 4°C. The supernatant was collected and the pH was adjusted to 6–8 using KOH. The samples were then lyophilized overnight. To convert plasma glucose to monoacetone glucose (MAG), acetone and concentrated sulfuric acid were added to the lyophilized samples and stirred for 4 hours at room temperature. Water was then added and the pH adjusted to 2.0 with 3M Na2CO3. Samples were stirred moderately for 18 hours at room temperature, the pH was adjusted to 7 with 3M Na2CO3, and the samples were completely dried by speed vacuum concentration. The resulting MAG samples were then extracted in hot ethyl acetate, dried overnight under a stream of N2 gas, purified using Discovery DSC-18 SPE columns (6 ml, 1 g bed weight), and freeze dried. Purified MAG samples were solubilized in 180 μl 90% acetonitrile for ^2H NMR analysis which was performed using the lock channel of a 950 MHz Bruker NMR spectrometer (David H Murdock Research Institute, Kannapolis, NC). Acquisition parameters were as follows: 90° pulse, D1 = 1 s, ^1H broadband decoupling, NS = 3600 averages, acquisition time ~ 1 hr. The ^2H NMR spectra of the MAG samples were then analyzed using in–house developed Matlab (The Mathworks Inc, Natick, MA) to model the NMR peaks with a Lorentzian line shape, and the results were used to calculate integrals for each of the seven NMR resonances in the MAG spectrum. Peaks 2, 5, and 6s were then used to calculate the relative sources of EGP (i.e. gluconeogenesis from TCA cycle substrates, gluconeogenesis from triose phosphates, and glycogenolysis) and these values were combined with the total EGP measurement to calculate absolute fluxes of glucose production.

[2] = acute treatment, 10 mg/kg, individual animals

Q: What does the source list for `O=C1NC(=O)C(C2CCOc3cc(Oc4ccc(C(F)(F)F)cc4Cl)ccc32)S1` (centres unmarked) [MK-2305]?
A: secreted insulin per islet ([1]; 2mM glucose): 0.6472 ng/ml per islet and 0.4249 ng/ml per islet and 0.7026 ng/ml per islet and 0.678 ng/ml per islet and 0.4061 ng/ml per islet and 0.594 ng/ml per islet and 0.652 ng/ml per islet and 0.541 ng/ml per islet; secreted insulin per islet ([1]; 15 mM Glucose): 5.982 ng/ml per islet and 3.69 ng/ml per islet and 4.728 ng/ml per islet and 4.578 ng/ml per islet and 5.448 ng/ml per islet and 3.948 ng/ml per islet and 4.236 ng/ml per islet and 5.162 ng/ml per islet; effect on GSIS ([1]; high (15 mM) but not basal (2 mM) glucose): acutely stimulate GSIS; Glucose Production, GNG Glycerol (GK rats; [2]): 3.608 µmol/kg/min and 6.69 µmol/kg/min and 9.73 µmol/kg/min and 6.819 µmol/kg/min and 7.18 µmol/kg/min and 7.314 µmol/kg/min; Glucose Production, GNG TCA (GK rats; [2]): 22.6827 µmol/kg/min and 24.6101 µmol/kg/min and 42.0826 µmol/kg/min and 20.0832 µmol/kg/min and 26.1824 µmol/kg/min and 20.2011 µmol/kg/min; Glucose Production, GNG Total (GK rats; [2]): 26.2902 µmol/kg/min and 31.3005 µmol/kg/min and 51.8129 µmol/kg/min and 26.902 µmol/kg/min and 33.3626 µmol/kg/min and 27.5151 µmol/kg/min; Glucose Production, Glycogenolysis (GK rats; [2]): 12.8051 µmol/kg/min and 15.6084 µmol/kg/min and 16.1238 µmol/kg/min and 13.6282 µmol/kg/min and 9.977 µmol/kg/min and 16.0296 µmol/kg/min; effect on EGP derived from glycogenolysis (GK rats; acute, 10 mg/kg PO): did not acutely affect; EGP from gluconeogenic substrates entering as triose phosphates (GK rats; acute, 10 mg/kg PO, mean ± SEM, vehicle 8.82 ± 0.81, p < 0.05): 6.90 ± 0.80 µmol/kg/min; EGP from gluconeogenic substrates entering at the TCA cycle (GK rats; acute, 10 mg/kg PO, mean ± SEM, vehicle 43.2 ± 4.17, p < 0.01): 26.0 ± 3.36 µmol/kg/min; total EGP (GK rats; acute, 10 mg/kg PO, mean ± SEM, vehicle 52.0 ± 4.82, p < 0.05): 32.9 ± 3.95 µmol/kg/min
